# Tests used:
# Plasmodium falciparum [1] = assay: MMV: Inhibition of Plasmodium falciparum 3D7 (EC50).; assay type: functional, organism-based
# [2] = test system: Trypanosoma brucei brucei; assay: MMV: Inhibition of Trypanosoma brucei brucei (Squib 427) (HAT in vitro).; assay type: functional, organism-based
# [3] = test system: Trypanosoma brucei rhodesiense; assay: MMV: Inhibition of Trypanosoma brucei rhodesiense (STIB 900) (HAT in vitro).; assay type: functional, organism-based
# Trypanosoma cruzi = assay: MMV: Inhibition of Trypanosoma cruzi (Tulahuen C4 LacZ) (Chagas in vitro).; assay type: functional, organism-based
# Leishmania infantum = assay: MMV: Inhibition of Leishmania infantum (MHOM/MA/BE/67) in vitro.; assay type: functional, organism-based
# Plasmodium falciparum [4] = assay: MMV: Inhibition of Plasmodium falciparum 3D7 at 5uM compound concentration.; assay type: functional
# [5] = MMV: Cytotoxicity against human fibroblasts (MRC-5) cells.; conditions: MRC-5 cells (human fibroblasts)
# Plasmodium falciparum [6] = assay: MMV: Inhibition of Plasmodium falciparum K1 (EC50).; assay type: functional, organism-based
Structure (SMILES),EC50 (Plasmodium falciparum [1]) [µM],IC50 [2] [µM],IC50 [3] [µM],IC50 (Trypanosoma cruzi) [µM],IC50 (Leishmania infantum) [µM],inhibition at 5 µM (Plasmodium falciparum [4]) [%],IC50 [5] [µM],EC50 (Plasmodium falciparum [6]) [µM]
CN(C)CCCNc1c2ccccc2nc2ccccc12,0.235,< 0.125,< 0.125,1,1.01,95,2.86,1.56
Cc1ccc(Nc2nc(-c3ccccn3)cs2)cc1,0.35,13.4,14.8,0.281,5.38,79,,0.0822
CCC(C)NCC(O)(c1ccc(Cl)cc1)c1ccc(Cl)cc1 (stereo not drawn),,4.1,4.03,15,16,98,> 32,0.398
COc1ccc(CN2CCCC(C(=O)c3ccc(C(F)(F)F)cc3)C2)c(O)c1 (stereo not drawn),,> 32,> 32,> 32,> 32,97,> 32,0.728
COc1ccc2nc(N)nc(C)c2c1,,18.4,16.3,> 32,> 32,63,> 32,0.3
Oc1ccc(-c2nc(-c3ccc4oc5ccc(-c6[nH]c(-c7ccc(O)cc7)nc6-c6ccccc6)cc5c4c3)c(-c3ccccc3)[nH]2)cc1,0.326,3.38,2.75,4.91,4,98,15.2,0.285
Cc1ccnc(NC(c2cccc(OCc3ccccc3)c2)c2ccc3cccnc3c2O)c1 (stereo not drawn),1.02,1.2,1,1.05,4.06,97,2,1.02
COc1ccc(NC(=O)C2c3ccccc3C(=O)N(CC(C)C)C2c2cccs2)cc1Cl (stereo not drawn),0.0202,> 32,> 32,> 32,> 32,100,> 32,0.0508
CCOc1cc2c(cc1OCC)C(c1cc(Cl)ccc1O)NCC2 (stereo not drawn),0.746,3,1.3,> 32,> 32,98,> 32,0.206
CCOc1cc2c(cc1OCC)C(c1cc(C)c(O)c(C)c1)NCC2 (stereo not drawn),0.683,12.9,4.06,> 32,17.3,97,> 32,0.168
Cc1ccc(C2CC(C(F)(F)F)n3nc(C(=O)N4CCN(C(c5ccccc5)c5ccccc5)CC4)cc3N2)cc1 (stereo not drawn),0.454,16.5,4.11,16.6,16.2,98,> 32,1.61
CCOc1cc2c(cc1OCC)C(c1cc(Cl)c(O)c(OCC)c1)NCC2 (stereo not drawn),1.33,11,4.61,> 32,17.3,96,> 32,0.651
CCc1ccc(Nc2cc(C)c3ccc(O)cc3n2)cc1,0.194,12.2,11.9,3.72,4.32,98,7.77,0.0161
CCCCCCn1c(=N)n(CC(O)COc2cccc(C)c2)c2ccccc21 (stereo not drawn),1.14,1.01,0.942,3.78,2.54,98,4,0.7
CC(C)OCc1cc(CN2CCN(c3cccc(Cl)c3)CC2)c(O)c2ncccc12,0.697,1,0.352,0.234,1.19,98,1.17,1.14
O=C(Nc1nc(-c2ccccn2)cs1)c1ccccc1Br,1.36,1.04,0.376,0.26,1.59,97,,1.58
COc1ccc(-c2cc(=O)oc3c4c(ccc23)OCN(Cc2ccc(F)cc2)C4)cc1,0.735,15.8,11,13.2,5.38,96,> 32,0.294
CCOC(=O)C1(Cc2ccccc2)CCN(Cc2cccc(OC)c2O)CC1,,16.7,15.3,17.1,> 32,95,> 32,1
CCCOCc1cc(CN2CCN(c3cccc(Cl)c3)CC2)c(O)c2ncccc12,0.407,1.02,0.972,0.954,1.59,97,1.67,0.362
CCOc1ccc2c(c1)CN(Cc1ccc(Cl)cc1)CO2,0.439,7,11,> 32,> 32,97,> 32,0.184
CC(C)(C)c1ccc2c(c1)CN(Cc1ccc(Cl)cc1)CO2,0.362,10.1,5.04,17.7,> 32,98,> 32,0.107
CCCCC(O)(c1ccc(Cl)cc1)C(CN1CCOCC1)c1ccc(Cl)cc1 (stereo not drawn),1.38,3.91,4.32,14.3,10.2,98,> 32,1.53
COc1ccc(C(=O)NC(c2ccccc2Cl)c2cc(Cl)c3cccnc3c2O)cc1 (stereo not drawn),,> 32,> 32,> 32,> 32,96,> 32,0.703
COc1ccc(C2Sc3ccccc3N=C3C2=C(O)c2ccccc23)cc1 (stereo not drawn),0.845,4,3.54,4.51,4.76,96,> 32,1.93
CC1CCCCN1CCCNC(=O)c1ccc2c(c1)sc1nc(-c3ccc(F)cc3)cn12 (stereo not drawn),0.648,3.79,1.19,4.14,1.08,98,10.4,1.13
COc1ccc(NC(=O)C2c3ccccc3C(=O)N(CC(C)C)C2c2cccs2)cc1 (stereo not drawn),0.0367,16.1,4.32,> 32,> 32,100,> 32,0.0739
Cc1ccc(S(=O)(=O)c2c(COC(=O)c3cccc(C)c3)c(-c3ccccc3)nn2C)cc1,,16.3,16.5,23.6,17.3,95,> 32,0.776

# — ChEMBL document CHEMBL2028040, “Malaria Box”
